Laboratory results published in the NIST ThermoML archive (doi:10.1021/acs.jced.6b00471).
± gives the expanded uncertainty stated by the source.

Assays:
[1] = Liquid; for mass density: 298.15 K, 101.33 kPa, Pycnometric method; for Normal boiling temperature: Ebulliometric method (Recirculating still)
[2] = refractive index (Na D-line) (dimensionless); details: 298.15 K; 101.33 kPa; Liquid; Standard Abbe refractometry

SMILES | mass density [1] [kg/m3] | Normal boiling temperature [1] [°C] | refractive index [2]
CCC(C)OC(C)=O (stereo not given) [1-methylpropyl ethanoate] | 863.8 ± 0.8 | 111.97 ± 0.2 | 1.3872 ± 0.0007
CC(C)CO [2-methyl-1-propanol] | 797.4 ± 0.7 | 107.68 ± 0.2 | 1.3931 ± 0.0007
CC(C)(C)O [2-methylpropan-2-ol] |  | 82.36 ± 0.2 | 1.3857 ± 0.0007
CCCCO [butan-1-ol] | 805.8 ± 0.7 |  | 1.397 ± 0.0007
